The numbers were not newly measured in US11957650B2, “Formulation and method for the prevention and/or treatment of hangover symptoms” (PHOENIX PHARMACEUTICALS AUSTRALIA PTY LTD, priority 2016, dated 2024), which cites them from elsewhere.

The series concerns acetaldehyde poisoning in rats. The following applies: for Effective dose in rats: footnotes * and † not given.

Regarding `O=C1O[C@H]([C@@H](O)CO)C(O)=C1O` [Ascorbic acid], the “Effective dose in rats” value is 50 mg. Consider `N[C@@H](CS)C(=O)O` [L-cysteine], for which the “Effective dose in rats” value was 34 mg. Moreover, the “mortality due to acetaldehyde poisoning” value (L-cysteine alone [13, 14]) was “markedly reduce the mortality”. With `Cc1ncc(C[n+]2csc(CCO)c2C)c(N)n1.Cl.[Cl-]` [Thiamine•HCl], the “Effective dose in rats” value was 42 mg. For `Cc1ncc(C[n+]2csc(CCO)c2C)c(N)n1` [thiamine, Thiamine], the “mortality in rats poisoned with acetaldehyde, thiamine added to L-cysteine” value (addition of thiamine to L-cysteine [13, 14]) was “enhanced the ability of L-cysteine to reduce mortality”.
